Experiments:
[1] = system: A549-ACE2 infected with SARS-CoV-2; assay: cell count relative to DMSO; higher = less toxic; conditions: 24 h
[2] = system: Caco-2; assay: cell viability relative to DMSO; higher = less toxic; conditions: 72 h
[3] = system: Calu-3; assay: as above; conditions: 72 h
[4] = system: HepG2; assay: as above; conditions: 72 h
[5] = system: U2OS; assay: as above; conditions: 72 h
[6] = system: Vero E6; assay: as above; conditions: 72 h
[7] = system: A549-ACE2 infected with SARS-CoV-2; assay: SARS-CoV-2 infection rate relative to DMSO; higher = more infection; conditions: 24 h
[8] = system: A549-ACE2; assay: phospholipidosis EC50; higher = less potent phospholipidosis inducer
[9] = system: A549-ACE2; assay: drug-induced phospholipidosis relative to tamoxifen; higher = more phospholipidosis
[10] = system: A549-ACE2 infected with SARS-CoV-2; assay: morphology score (similarity to uninfected cells); higher = more like uninfected cells; conditions: 24 h
[11] = system: Caco-2; assay: relative viability EC50 (midpoint between 100% and the lowest measured viability); higher = less toxic; conditions: 72 h
[12] = system: Calu-3; assay: as above; conditions: 72 h
[13] = system: U2OS; assay: as above; conditions: 72 h
[14] = system: Vero E6; assay: as above; conditions: 72 h
[15] = system: Caco-2; assay: drug sensitivity score (DSS) for viability; higher = more toxic; extreme values may be limits of the assay; conditions: 72 h
[16] = system: Calu-3; assay: as above; conditions: 72 h
[17] = system: HepG2; assay: as above; conditions: 72 h
[18] = system: U2OS; assay: as above; conditions: 72 h
[19] = system: Vero E6; assay: as above; conditions: 72 h

O=C(CN1C2=NCCN2c2ccccc21)c1ccc(-c2ccccc2)cc1
Conditions | SARS-CoV-2 infection rate [%] | cell count [%] | cell viability [%] | morphology score | phospholipidosis EC50 [µM]
[1], 0.3 µM | – | 101 | – | – | –
[1], 3 µM | – | 114 | – | – | –
[1], 10 µM | – | 118 | – | – | –
[1], 30 µM | – | 106 | – | – | –
[2], 1 nM | – | – | 99.6 | – | –
[2], 10 nM | – | – | 102 | – | –
[2], 100 nM | – | – | 110 | – | –
[2], 1000 nM | – | – | 102 | – | –
[2], 10000 nM | – | – | 88.8 | – | –
[3], 1 nM | – | – | 94.5 | – | –
[3], 10 nM | – | – | 99.2 | – | –
[3], 100 nM | – | – | 92.9 | – | –
[3], 1000 nM | – | – | 100 | – | –
[3], 10000 nM | – | – | 82.2 | – | –
[4], 1 nM | – | – | 98.7 | – | –
[4], 10 nM | – | – | 97.4 | – | –
[4], 100 nM | – | – | 95.1 | – | –
[4], 1000 nM | – | – | 98.4 | – | –
[4], 10000 nM | – | – | 74.1 | – | –
[5], 1 nM | – | – | 108 | – | –
[5], 10 nM | – | – | 104 | – | –
[5], 100 nM | – | – | 99.1 | – | –
[5], 1000 nM | – | – | 99.3 | – | –
[5], 10000 nM | – | – | 90.6 | – | –
[6], 1 nM | – | – | 103 | – | –
[6], 10 nM | – | – | 99.5 | – | –
[6], 100 nM | – | – | 98.8 | – | –
[6], 1000 nM | – | – | 95.4 | – | –
[6], 10000 nM | – | – | 83.4 | – | –
[7], 0.3 µM | 105 | – | – | – | –
[7], 3 µM | 67 | – | – | – | –
[7], 10 µM | 14 | – | – | – | –
[7], 30 µM | 51 | – | – | – | –
[8], 24 h | – | – | – | – | 5.39
[8], 48 h | – | – | – | – | 7.27
[8], 72 h | – | – | – | – | 8.25
[10], 0.3 µM | – | – | – | -0.08 | –
[10], 3 µM | – | – | – | 0.58 | –
[10], 10 µM | – | – | – | 0.78 | –
[10], 30 µM | – | – | – | -0.05 | –

drug-induced phospholipidosis [%], [9]
Conditions | 0.3 µM | 0.833333 µM | 3.33333 µM | 6.66667 µM | 10 µM | 30 µM
24 h | 2.47 | 0.7 | 26.4 | 46.9 | 91.5 | 84
48 h | 4.83 | 1.26 | 21.7 | 49.5 | 106 | 117
72 h | 2.9 | -4.28 | 15 | 36.6 | 99.6 | –

Conditions | drug sensitivity score | relative viability EC50 [µM]
[11] | – | > 10
[12] | – | > 10
[13] | – | > 10
[14] | – | > 10
[15] | 0 | –
[16] | 0.4 | –
[17] | 1.2 | –
[18] | 0 | –
[19] | 0.8 | –

COc1ccc(/C=C/C(=O)/C=C(O)/C=C/c2ccc(OC)c(OC)c2)cc1OC [ASC-J9]
Conditions | SARS-CoV-2 infection rate [%] | cell count [%] | cell viability [%] | morphology score | phospholipidosis EC50 [µM]
[1], 0.3 µM | – | 100 | – | – | –
[1], 3 µM | – | 101 | – | – | –
[1], 10 µM | – | 98 | – | – | –
[1], 30 µM | – | 70 | – | – | –
[2], 1 nM | – | – | 90.7 | – | –
[2], 10 nM | – | – | 92.8 | – | –
[2], 100 nM | – | – | 92.9 | – | –
[2], 1000 nM | – | – | 100 | – | –
[2], 10000 nM | – | – | 45.2 | – | –
[3], 1 nM | – | – | 96.5 | – | –
[3], 10 nM | – | – | 94.9 | – | –
[3], 100 nM | – | – | 110 | – | –
[3], 1000 nM | – | – | 108 | – | –
[3], 10000 nM | – | – | 81.9 | – | –
[4], 1 nM | – | – | 118 | – | –
[4], 10 nM | – | – | 106 | – | –
[4], 100 nM | – | – | 111 | – | –
[4], 1000 nM | – | – | 95.4 | – | –
[4], 10000 nM | – | – | 55.8 | – | –
[5], 1 nM | – | – | 96.1 | – | –
[5], 10 nM | – | – | 97.5 | – | –
[5], 100 nM | – | – | 95.3 | – | –
[5], 1000 nM | – | – | 98.1 | – | –
[5], 10000 nM | – | – | 26.5 | – | –
[6], 1 nM | – | – | 99.2 | – | –
[6], 10 nM | – | – | 93.9 | – | –
[6], 100 nM | – | – | 103 | – | –
[6], 1000 nM | – | – | 101 | – | –
[6], 10000 nM | – | – | 103 | – | –
[7], 0.3 µM | 98 | – | – | – | –
[7], 3 µM | 97 | – | – | – | –
[7], 10 µM | 87 | – | – | – | –
[7], 30 µM | 25 | – | – | – | –
[8], 24 h | – | – | – | – | 20
[10], 0.3 µM | – | – | – | 0.01 | –
[10], 3 µM | – | – | – | -0.06 | –
[10], 10 µM | – | – | – | 0.39 | –
[10], 30 µM | – | – | – | 0.56 | –

drug-induced phospholipidosis [%], [9]
Conditions | 0.3 µM | 0.833333 µM | 3.33333 µM | 6.66667 µM | 10 µM | 30 µM
24 h | 0.46 | -1.23 | 4.99 | 24.2 | 40.1 | 139
48 h | 1.84 | -1.1 | 1.58 | 8.23 | 13.3 | 45.5
72 h | 4.19 | -0.9 | 1.28 | 7.61 | 9.79 | 37.4

Conditions | drug sensitivity score | relative viability EC50 [µM]
[11] | – | 3.19
[12] | – | > 10
[13] | – | 2.98
[14] | – | > 10
[15] | 2.9 | –
[16] | 0.3 | –
[17] | 3 | –
[18] | 4.3 | –
[19] | 0 | –

Clc1ccccc1CNC[C@H]1CC[C@H](CNCc2ccccc2Cl)CC1 [AY-9944]
Conditions | SARS-CoV-2 infection rate [%] | cell count [%] | cell viability [%] | morphology score | phospholipidosis EC50 [µM]
[1], 0.3 µM | – | 104 | – | – | –
[1], 3 µM | – | 123 | – | – | –
[1], 10 µM | – | 126 | – | – | –
[1], 30 µM | – | 113 | – | – | –
[2], 1 nM | – | – | 99.5 | – | –
[2], 10 nM | – | – | 108 | – | –
[2], 100 nM | – | – | 99.7 | – | –
[2], 1000 nM | – | – | 95.1 | – | –
[2], 10000 nM | – | – | 83.7 | – | –
[3], 1 nM | – | – | 97.7 | – | –
[3], 10 nM | – | – | 104 | – | –
[3], 100 nM | – | – | 106 | – | –
[3], 1000 nM | – | – | 108 | – | –
[3], 10000 nM | – | – | 7.3 | – | –
[4], 1 nM | – | – | 104 | – | –
[4], 10 nM | – | – | 96 | – | –
[4], 100 nM | – | – | 110 | – | –
[4], 1000 nM | – | – | 98.1 | – | –
[4], 10000 nM | – | – | 59.2 | – | –
[5], 1 nM | – | – | 97.4 | – | –
[5], 10 nM | – | – | 102 | – | –
[5], 100 nM | – | – | 103 | – | –
[5], 1000 nM | – | – | 107 | – | –
[5], 10000 nM | – | – | 92.8 | – | –
[6], 1 nM | – | – | 102 | – | –
[6], 10 nM | – | – | 104 | – | –
[6], 100 nM | – | – | 105 | – | –
[6], 1000 nM | – | – | 94.5 | – | –
[6], 10000 nM | – | – | 90 | – | –
[7], 0.3 µM | 86 | – | – | – | –
[7], 3 µM | 39 | – | – | – | –
[7], 10 µM | 17 | – | – | – | –
[7], 30 µM | 34 | – | – | – | –
[8], 24 h | – | – | – | – | 5.85
[8], 48 h | – | – | – | – | 5.4
[8], 72 h | – | – | – | – | 4.53
[10], 0.3 µM | – | – | – | 0.42 | –
[10], 3 µM | – | – | – | 0.76 | –
[10], 10 µM | – | – | – | 0.56 | –
[10], 30 µM | – | – | – | 0.08 | –

drug-induced phospholipidosis [%], [9]
Conditions | 0.3 µM | 0.833333 µM | 3.33333 µM | 6.66667 µM | 10 µM | 30 µM
24 h | 20.6 | 37.8 | 77.7 | 88.2 | 96.4 | 121
48 h | 14.1 | 38.1 | 78.4 | 112 | 116 | 148
72 h | 17.5 | 29.9 | 79.3 | 115 | 128 | 157

Conditions | drug sensitivity score | relative viability EC50 [µM]
[11] | – | > 10
[12] | – | 3.6
[13] | – | > 10
[14] | – | > 10
[15] | 0.8 | –
[16] | 4.6 | –
[17] | 2.3 | –
[18] | 0 | –
[19] | 0 | –
